Assay results taken from ChEMBL document CHEMBL4507291 (2021).

Legend:
[1] = biological target: Protein kinase C zeta type (Homo sapiens) (UniProt Q05513); test: PRKCZ (PKC zeta) Kinase screen; conditions: Compound concentration 1.0 uM
[2] = biological target: Type-1 angiotensin II receptor (Homo sapiens) (UniProt P30556); conditions: Compound concentration 10.0 uM
[3] = biological target: Misshapen-like kinase 1 (Homo sapiens) (UniProt Q8N4C8); test: MINK1 Kinase screen; conditions: Compound concentration 1.0 uM
[4] = biological target: 3-phosphoinositide-dependent protein kinase 1 (PDPK1) (Homo sapiens) (UniProt O15530); test: PDK1 Kinase screen; conditions: Compound concentration 1.0 uM
[5] = biological target: Phosphorylase b kinase gamma catalytic chain, skeletal muscle/heart isoform (Homo sapiens) (UniProt Q16816); test: PHKG1 Kinase screen; conditions: Compound concentration 1.0 uM
[6] = biological target: T1, Tyrosine-protein kinase Mer (Homo sapiens) (UniProt Q12866); test: MERTK (cMER) Kinase screen; conditions: Compound concentration 1.0 uM
T1 sequence (whole entry): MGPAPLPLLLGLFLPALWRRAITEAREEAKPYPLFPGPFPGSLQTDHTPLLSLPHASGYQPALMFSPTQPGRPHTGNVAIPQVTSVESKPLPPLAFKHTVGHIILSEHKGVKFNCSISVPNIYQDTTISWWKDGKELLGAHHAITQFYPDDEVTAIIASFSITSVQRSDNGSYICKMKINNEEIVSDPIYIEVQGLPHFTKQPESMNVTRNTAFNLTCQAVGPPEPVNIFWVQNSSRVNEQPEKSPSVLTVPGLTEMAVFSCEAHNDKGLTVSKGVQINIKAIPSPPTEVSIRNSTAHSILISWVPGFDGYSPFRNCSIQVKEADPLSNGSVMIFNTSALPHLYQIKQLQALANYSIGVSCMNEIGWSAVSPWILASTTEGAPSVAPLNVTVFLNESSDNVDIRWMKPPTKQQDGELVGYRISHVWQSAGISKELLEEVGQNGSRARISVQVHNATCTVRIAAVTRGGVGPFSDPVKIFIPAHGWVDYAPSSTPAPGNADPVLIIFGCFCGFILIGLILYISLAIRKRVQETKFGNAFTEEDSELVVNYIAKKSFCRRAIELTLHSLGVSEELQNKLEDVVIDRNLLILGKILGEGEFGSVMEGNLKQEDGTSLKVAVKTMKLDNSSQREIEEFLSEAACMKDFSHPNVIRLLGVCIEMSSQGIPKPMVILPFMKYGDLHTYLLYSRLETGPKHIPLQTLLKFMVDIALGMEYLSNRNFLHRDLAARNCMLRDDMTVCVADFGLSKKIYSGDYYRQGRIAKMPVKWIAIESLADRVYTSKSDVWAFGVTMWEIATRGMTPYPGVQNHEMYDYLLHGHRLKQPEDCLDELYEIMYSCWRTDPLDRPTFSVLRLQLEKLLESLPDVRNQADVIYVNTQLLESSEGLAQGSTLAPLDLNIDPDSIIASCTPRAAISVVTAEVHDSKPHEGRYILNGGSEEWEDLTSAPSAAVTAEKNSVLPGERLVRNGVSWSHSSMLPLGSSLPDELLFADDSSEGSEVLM

[7] = biological target: Histamine H1 receptor (Homo sapiens) (UniProt P35367); conditions: Compound concentration 10.0 uM
[8] = biological target: Calcium/calmodulin-dependent protein kinase type 1 (Homo sapiens) (UniProt Q14012); test: CAMK1 (CaMK1) Kinase screen; conditions: Compound concentration 1.0 uM
[9] = biological target: Fibroblast growth factor receptor 3 (Homo sapiens) (UniProt P22607); test: FGFR3 Kinase screen; conditions: Compound concentration 1.0 uM
[10] = biological target: Vascular endothelial growth factor receptor 1 (Homo sapiens) (UniProt P17948); test: FLT1 (VEGFR1) Kinase screen; conditions: Compound concentration 1.0 uM
[11] = organism: Rattus norvegicus; test: Testosterone Eurofins-Panlabs radioligand binding assay; set-up: ligand concentration 1.5 nM; conditions: Compound concentration 10.0 uM
[12] = biological target: Mast/stem cell growth factor receptor Kit (Homo sapiens) (UniProt P10721); test: KIT Kinase screen; conditions: Compound concentration 1.0 uM
[13] = biological target: Protein kinase C eta type (Homo sapiens) (UniProt P24723); test: PRKCH (PKC eta) Kinase screen; conditions: Compound concentration 1.0 uM
[14] = biological target: T2, Inhibitor of nuclear factor kappa-B kinase subunit beta (Homo sapiens) (UniProt O14920); test: IKBKB (IKK beta) Kinase screen; conditions: Compound concentration 1.0 uM
T2 sequence (whole entry): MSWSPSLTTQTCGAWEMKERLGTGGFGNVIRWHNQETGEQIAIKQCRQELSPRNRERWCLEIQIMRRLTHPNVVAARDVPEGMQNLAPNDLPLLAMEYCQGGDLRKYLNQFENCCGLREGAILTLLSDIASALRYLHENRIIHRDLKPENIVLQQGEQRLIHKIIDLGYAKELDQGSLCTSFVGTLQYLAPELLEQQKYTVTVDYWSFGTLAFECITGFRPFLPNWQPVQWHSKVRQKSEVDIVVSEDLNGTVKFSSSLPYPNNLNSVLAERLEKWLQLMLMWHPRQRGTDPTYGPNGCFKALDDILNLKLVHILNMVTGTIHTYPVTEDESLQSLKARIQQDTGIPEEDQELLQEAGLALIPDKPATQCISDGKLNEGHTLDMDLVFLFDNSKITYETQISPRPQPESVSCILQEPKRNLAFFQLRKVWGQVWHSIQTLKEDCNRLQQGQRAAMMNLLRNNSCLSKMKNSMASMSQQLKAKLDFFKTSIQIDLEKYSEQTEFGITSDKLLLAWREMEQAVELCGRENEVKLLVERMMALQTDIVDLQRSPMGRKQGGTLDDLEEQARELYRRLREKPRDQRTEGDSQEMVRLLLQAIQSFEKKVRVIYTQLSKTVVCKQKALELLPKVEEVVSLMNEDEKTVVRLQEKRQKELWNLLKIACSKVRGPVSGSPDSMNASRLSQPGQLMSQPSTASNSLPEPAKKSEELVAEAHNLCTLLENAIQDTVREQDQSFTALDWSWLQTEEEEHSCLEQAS

[15] = biological target: Caspase-9 (Homo sapiens) (UniProt P55211); test: Peptidase, CASP9 (Caspase 9) Eurofins-Panlabs enzyme assay; set-up: substrate with concentration; conditions: Compound concentration 10.0 uM
[16] = biological target: Vasopressin V2 receptor (Homo sapiens) (UniProt P30518); test: Inhibition of Vasopressin V2 at 10 µM in the Eurofins-Panlabs radioligand binding assay (Eurofins_assay_287610); set-up: ligand concentration 4 nM; conditions: Compound concentration 10.0 uM
[17] = biological target: Mitogen-activated protein kinase 14 (Homo sapiens) (UniProt Q16539); test: Inhibition of Protein Serine/Threonine Kinase, MAPK14 (p38α) at 10 µM in the Eurofins-Panlabs enzyme assay (Eurofins_assay_176610); set-up: substrate with concentration; conditions: Compound concentration 10.0 uM
[18] = test system: Tyrosine-protein kinase ABL1 (Homo sapiens), P00519 [G250E]; test: ABL1 G250E Kinase screen; conditions: Compound concentration 1.0 uM
[19] = biological target: Leukocyte tyrosine kinase receptor (Homo sapiens) (UniProt P29376); test: LTK (TYK1) Kinase screen; conditions: Compound concentration 1.0 uM
[20] = biological target: Dual specificity protein kinase CLK3 (Homo sapiens) (UniProt P49761); test: CLK3 Kinase screen; conditions: Compound concentration 1.0 uM
[21] = biological target: Substance-P receptor (Homo sapiens) (UniProt P25103); test: Inhibition of Tachykinin NK1 at 10 µM in the Eurofins-Panlabs radioligand binding assay (Eurofins_assay_255520); set-up: ligand concentration 0.8 nM; conditions: Compound concentration 10.0 uM
[22] = test system: Dual specificity mitogen-activated protein kinase kinase 1 (Homo sapiens), Q02750 [S218D,S222D]; test: MAP2K1 (MEK1) S218D S222D Kinase screen; conditions: Compound concentration 1.0 uM

Measured: inhibition

Sequence of Caspase-9 (Homo sapiens) (P55211 1-315 limits assumed): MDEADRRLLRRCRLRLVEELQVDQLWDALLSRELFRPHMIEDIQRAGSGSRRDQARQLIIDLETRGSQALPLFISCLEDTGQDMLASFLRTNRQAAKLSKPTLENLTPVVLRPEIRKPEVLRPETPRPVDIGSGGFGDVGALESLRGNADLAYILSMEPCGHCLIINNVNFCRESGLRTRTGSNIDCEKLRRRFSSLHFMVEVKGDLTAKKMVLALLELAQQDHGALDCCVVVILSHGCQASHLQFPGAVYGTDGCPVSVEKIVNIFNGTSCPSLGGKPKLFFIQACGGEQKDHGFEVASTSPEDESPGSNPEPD
Sequence of Caspase-9 (Homo sapiens) (P55211 331-416 limits assumed): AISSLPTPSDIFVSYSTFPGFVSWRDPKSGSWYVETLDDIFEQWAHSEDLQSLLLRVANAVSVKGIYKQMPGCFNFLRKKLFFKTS
Sequence of Leukocyte tyrosine kinase receptor (Homo sapiens) (P29376 whole entry): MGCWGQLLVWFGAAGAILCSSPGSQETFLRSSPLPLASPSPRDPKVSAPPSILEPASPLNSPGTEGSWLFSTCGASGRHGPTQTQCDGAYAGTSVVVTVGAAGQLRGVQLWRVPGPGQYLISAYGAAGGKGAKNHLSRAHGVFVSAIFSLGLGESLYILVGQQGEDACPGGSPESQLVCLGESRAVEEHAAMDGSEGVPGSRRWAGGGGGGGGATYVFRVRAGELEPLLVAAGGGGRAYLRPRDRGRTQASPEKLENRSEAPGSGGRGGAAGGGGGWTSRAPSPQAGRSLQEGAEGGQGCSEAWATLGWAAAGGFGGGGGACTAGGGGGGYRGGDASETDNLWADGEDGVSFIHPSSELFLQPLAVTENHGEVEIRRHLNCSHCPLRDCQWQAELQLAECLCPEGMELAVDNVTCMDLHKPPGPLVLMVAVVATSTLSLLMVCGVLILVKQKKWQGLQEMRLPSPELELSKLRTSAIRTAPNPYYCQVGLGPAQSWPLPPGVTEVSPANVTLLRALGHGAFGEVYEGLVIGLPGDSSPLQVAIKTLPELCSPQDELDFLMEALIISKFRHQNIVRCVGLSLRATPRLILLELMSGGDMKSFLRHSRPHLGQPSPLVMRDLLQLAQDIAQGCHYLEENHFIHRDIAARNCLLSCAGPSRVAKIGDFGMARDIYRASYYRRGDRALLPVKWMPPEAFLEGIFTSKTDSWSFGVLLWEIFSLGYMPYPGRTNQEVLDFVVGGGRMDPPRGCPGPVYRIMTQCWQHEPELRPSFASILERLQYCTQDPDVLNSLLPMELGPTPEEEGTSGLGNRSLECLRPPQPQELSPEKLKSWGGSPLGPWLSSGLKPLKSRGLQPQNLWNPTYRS
Sequence of Calcium/calmodulin-dependent protein kinase type 1 (Homo sapiens) (Q14012 whole entry, looked up): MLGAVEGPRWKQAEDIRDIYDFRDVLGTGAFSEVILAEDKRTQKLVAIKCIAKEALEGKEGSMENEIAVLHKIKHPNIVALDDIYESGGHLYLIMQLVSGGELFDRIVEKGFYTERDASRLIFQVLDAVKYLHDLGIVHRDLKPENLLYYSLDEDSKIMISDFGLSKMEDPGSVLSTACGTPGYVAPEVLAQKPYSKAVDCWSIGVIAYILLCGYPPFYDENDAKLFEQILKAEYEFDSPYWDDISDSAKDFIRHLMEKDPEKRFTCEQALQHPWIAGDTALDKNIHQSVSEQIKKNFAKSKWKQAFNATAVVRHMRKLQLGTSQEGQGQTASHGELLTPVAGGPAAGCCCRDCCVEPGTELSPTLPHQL
Sequence of Mast/stem cell growth factor receptor Kit (Homo sapiens) (P10721 whole entry): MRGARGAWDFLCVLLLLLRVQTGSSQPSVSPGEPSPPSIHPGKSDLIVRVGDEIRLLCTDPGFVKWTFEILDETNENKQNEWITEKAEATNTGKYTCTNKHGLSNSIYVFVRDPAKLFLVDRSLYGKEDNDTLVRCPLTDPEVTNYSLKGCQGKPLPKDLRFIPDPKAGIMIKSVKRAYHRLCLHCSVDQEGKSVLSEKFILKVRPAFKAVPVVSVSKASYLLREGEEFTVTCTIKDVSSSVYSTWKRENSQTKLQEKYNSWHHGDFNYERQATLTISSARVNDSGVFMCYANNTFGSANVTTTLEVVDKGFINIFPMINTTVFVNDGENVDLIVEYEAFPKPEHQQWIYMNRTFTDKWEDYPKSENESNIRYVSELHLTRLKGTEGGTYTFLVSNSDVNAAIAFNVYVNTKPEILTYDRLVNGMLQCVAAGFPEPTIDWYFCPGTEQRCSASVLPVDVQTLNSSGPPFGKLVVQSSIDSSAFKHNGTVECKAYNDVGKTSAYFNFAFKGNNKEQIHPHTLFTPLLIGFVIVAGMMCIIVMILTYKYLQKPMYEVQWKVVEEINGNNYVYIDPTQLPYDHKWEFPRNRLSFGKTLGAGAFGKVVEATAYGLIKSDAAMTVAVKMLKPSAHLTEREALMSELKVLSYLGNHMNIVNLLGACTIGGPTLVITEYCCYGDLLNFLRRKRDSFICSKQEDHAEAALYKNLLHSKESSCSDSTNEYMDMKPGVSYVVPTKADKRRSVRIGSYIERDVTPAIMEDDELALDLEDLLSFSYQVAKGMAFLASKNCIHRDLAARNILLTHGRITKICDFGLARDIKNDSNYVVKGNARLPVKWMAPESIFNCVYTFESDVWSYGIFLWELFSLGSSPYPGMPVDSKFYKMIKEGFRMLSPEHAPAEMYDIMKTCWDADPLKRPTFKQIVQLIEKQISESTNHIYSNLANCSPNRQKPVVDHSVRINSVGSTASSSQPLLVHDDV
Sequence of Dual specificity protein kinase CLK3 (Homo sapiens) (P49761 whole entry, looked up): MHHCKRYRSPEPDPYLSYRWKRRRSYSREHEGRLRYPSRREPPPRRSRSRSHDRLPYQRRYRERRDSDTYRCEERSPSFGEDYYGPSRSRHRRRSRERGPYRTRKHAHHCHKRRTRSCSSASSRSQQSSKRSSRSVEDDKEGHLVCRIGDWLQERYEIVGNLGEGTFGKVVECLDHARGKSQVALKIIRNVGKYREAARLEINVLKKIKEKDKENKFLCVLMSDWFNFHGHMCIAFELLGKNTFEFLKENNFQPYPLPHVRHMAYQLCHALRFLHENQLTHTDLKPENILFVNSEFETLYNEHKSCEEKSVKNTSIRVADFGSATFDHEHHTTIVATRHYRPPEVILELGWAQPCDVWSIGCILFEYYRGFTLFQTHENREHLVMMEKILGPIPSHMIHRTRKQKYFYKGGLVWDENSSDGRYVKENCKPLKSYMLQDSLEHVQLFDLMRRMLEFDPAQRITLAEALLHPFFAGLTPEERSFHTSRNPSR
Sequence of Vascular endothelial growth factor receptor 1 (Homo sapiens) (P17948 whole entry): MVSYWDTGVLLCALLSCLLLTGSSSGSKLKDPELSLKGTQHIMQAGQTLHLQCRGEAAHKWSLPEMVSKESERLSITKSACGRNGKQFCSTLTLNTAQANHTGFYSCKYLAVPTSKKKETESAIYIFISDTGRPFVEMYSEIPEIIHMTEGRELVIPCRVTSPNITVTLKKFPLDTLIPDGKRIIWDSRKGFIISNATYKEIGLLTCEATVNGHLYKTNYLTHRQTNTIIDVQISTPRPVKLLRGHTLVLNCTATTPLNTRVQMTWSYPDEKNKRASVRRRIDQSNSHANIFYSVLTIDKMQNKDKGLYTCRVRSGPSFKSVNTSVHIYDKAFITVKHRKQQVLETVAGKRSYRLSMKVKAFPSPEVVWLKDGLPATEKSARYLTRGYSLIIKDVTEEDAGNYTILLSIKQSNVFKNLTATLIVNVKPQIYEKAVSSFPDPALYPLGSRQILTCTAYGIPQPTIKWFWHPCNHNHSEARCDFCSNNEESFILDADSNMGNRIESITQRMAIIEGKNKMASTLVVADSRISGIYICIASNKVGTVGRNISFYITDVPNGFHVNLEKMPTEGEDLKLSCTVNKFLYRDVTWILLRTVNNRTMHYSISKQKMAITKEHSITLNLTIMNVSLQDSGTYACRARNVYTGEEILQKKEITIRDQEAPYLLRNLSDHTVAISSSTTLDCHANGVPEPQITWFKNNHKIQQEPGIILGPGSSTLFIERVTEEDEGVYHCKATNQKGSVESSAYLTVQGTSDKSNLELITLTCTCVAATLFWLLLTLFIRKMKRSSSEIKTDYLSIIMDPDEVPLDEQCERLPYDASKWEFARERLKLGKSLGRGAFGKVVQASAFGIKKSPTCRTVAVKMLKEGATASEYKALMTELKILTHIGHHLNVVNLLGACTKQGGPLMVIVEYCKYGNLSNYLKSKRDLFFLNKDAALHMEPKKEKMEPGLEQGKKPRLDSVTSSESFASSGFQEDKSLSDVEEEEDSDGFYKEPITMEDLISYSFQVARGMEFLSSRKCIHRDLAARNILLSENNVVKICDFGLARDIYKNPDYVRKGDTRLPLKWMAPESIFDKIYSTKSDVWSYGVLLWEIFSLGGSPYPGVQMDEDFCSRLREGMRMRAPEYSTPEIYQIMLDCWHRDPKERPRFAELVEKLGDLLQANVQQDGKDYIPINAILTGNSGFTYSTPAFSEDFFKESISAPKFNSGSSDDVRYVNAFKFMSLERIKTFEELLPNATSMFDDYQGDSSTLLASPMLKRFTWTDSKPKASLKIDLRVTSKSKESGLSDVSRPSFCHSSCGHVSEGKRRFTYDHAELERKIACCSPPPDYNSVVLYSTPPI
Sequence of Mitogen-activated protein kinase 14 (Homo sapiens) (Q16539 whole entry): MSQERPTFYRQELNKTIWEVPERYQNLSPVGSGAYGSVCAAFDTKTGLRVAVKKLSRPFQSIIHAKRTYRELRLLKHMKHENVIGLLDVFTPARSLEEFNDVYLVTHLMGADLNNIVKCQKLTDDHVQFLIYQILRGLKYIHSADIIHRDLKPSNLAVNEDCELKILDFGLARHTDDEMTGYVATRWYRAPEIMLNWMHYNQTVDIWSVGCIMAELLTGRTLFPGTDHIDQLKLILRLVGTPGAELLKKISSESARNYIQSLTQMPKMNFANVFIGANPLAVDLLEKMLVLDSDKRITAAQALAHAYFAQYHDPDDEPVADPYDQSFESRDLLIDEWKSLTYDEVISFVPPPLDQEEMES

C[C@@H]1CN(c2cc(-c3n[nH]c4ccc(OC5(C)CC5)cc34)ncn2)C[C@H](C)O1 [MLi-2]
inactive: [1] -4.02% | [2] 8% | [3] 4.58% | [4] 13.6% | [5] 0.801% | [6] 4.76% | [7] -4% | [8] -4.05% | [9] 9.38% | [10] -1.02% | [11] 9% | [12] 5.52% | [13] 6.4% | [14] -0.0171% | [15] 5% | [16] 9% | [17] 19% | [18] 4.45% | [19] 42.4% | [20] 8.93% | [21] 22% | [22] 6.92%
